Measurements reported in US20020137929A1, “1 - (3-heterocyclylphenyl) isothiourea, -isourea, -guanidine and -amidine herbicidal agents” (Intellectual Property Department, BASF Aktiengesellschaft, priority 1998, published 2002).

Assays:
[1] = tested on: ABUTH (Velvetleaf); assay: Postemergence herbicidal evaluation; format: in vivo, Abutilon theophrasti
Outline: (§1)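 Herbicidal effect was judged by eye on a 0–9 scale covering stand, vigor, deformity, size and chlorosis, compared with controls, four to five weeks after seedlings about two weeks old were sprayed (40 psi, ~0.0156–0.500 kg/ha).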

[2] = tested on: AMBEL (Ragweed, Common); assay: Postemergence herbicidal evaluation; format: in vivo, Ambrosia artemisifolia
Outline: as §1

[3] = tested on: IPOHE (Morningglory, Ivyleaf); assay: Postemergence herbicidal evaluation; format: in vivo, Ipomoea hederacea
Outline: as §1

[4] = tested on: ECHCG (Barnyardgrass); assay: Postemergence herbicidal evaluation; format: in vivo, Echinochloa crus-galli
Outline: as §1

[5] = tested on: SETVI (Foxtail, Green); assay: Postemergence herbicidal evaluation; format: in vivo, Setaria viridis
Outline: as §1

[6] = tested on: GLXMAW (Soybean, Williams); assay: Postemergence herbicidal evaluation; format: in vivo, Glycine max, (L.) Merr. cv Williams
Outline: as §1

[7] = tested on: TRZAWR (Wheat, Winter, cv Riband); assay: Postemergence herbicidal evaluation; format: in vivo, Triticum aestivum
Outline: as §1

[8] = tested on: CASOB (Sicklepod); assay: Preemergence herbicidal evaluation; format: in vivo, Cassia obtusifolia; settings: rated 4-5 weeks after treatment
Outline: (§2)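 Scores (0–9) reflect visual comparison with control plants for stand, vigor, malformation, size and chlorosis. Compound was applied to the soil after sowing, before emergence, as an aqueous acetone spray (about 0.0156–0.500 kg/ha), and cups were kept in a greenhouse for 4–5 weeks.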

[9] = tested on: CHEAL (Lambsquarters, Common); assay: Preemergence herbicidal evaluation; format: in vivo, Chenopodium album; settings: rated 4-5 weeks after treatment
Outline: as §2

[10] = tested on: GALAP (Galium); assay: Preemergence herbicidal evaluation; format: in vivo, Galium aparine; settings: rated 4-5 weeks after treatment
Outline: as §2

[11] = tested on: IPOHE (Morningglory, Ivyleaf); assay: Preemergence herbicidal evaluation; format: in vivo, Ipomoea hederacea; settings: rated 4-5 weeks after treatment
Outline: as §2

[12] = tested on: ECHCG (Barnyardgrass); assay: Preemergence herbicidal evaluation; format: in vivo, Echinochloa crus-galli; settings: rated 4-5 weeks after treatment
Outline: as §2

[13] = tested on: ZEAMX (Corn, Field); assay: Preemergence herbicidal evaluation; format: in vivo, Zea mays; settings: rated 4-5 weeks after treatment
Outline: as §2

[14] = tested on: ECHORC (Watergrass (Calif.)); assay: Postemergence weed control under flooded paddy conditions; format: in vivo, Echinochloa oryzoides; settings: postemergence weeds, 3-4 weeks after treatment
Outline: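 With weeds 3 to 5 cm tall and rice at the 1.5 to 2.5 leaf stage, containers were flooded and water held 1.5 to 3 cm above soil. Compounds in 50/50 v/v aqueous/acetone went into the flood water at about 0.0313 to 0.500 kg/ha a.i. Effects were visually rated 0–9 against controls after three to four weeks in the greenhouse.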

Cn1c(C(F)(F)F)cc(=O)n(-c2cc(N=C3SCC(=O)N3CC(=O)OC(C)(C)C)c(Cl)cc2F)c1=O [Compound 43, tert-Butyl 2-{{2-chloro-5-[3,6-dihydro-3-methyl-2,6-dioxo-4-(trifluoromethyl)-1(2H)-pyrimidinyl]-4-fluorophenyl}imino}-4-oxo-3-thiazolidineacetate]
7.0: Postemergence herbicidal rating GLXMAW ([6]; Rate 0.0315 kg/ha) | Postemergence herbicidal rating GLXMAW ([6]; Rate 0.0630 kg/ha) | Herbicidal rating ECHORC ([14]; rate 0.1250 kg/ha)
3.5: Postemergence herbicidal rating TRZAWR ([7]; Rate 0.0315 kg/ha)
6.0: Preemergence herbicidal rating ZEAMX ([13]; rate 0.2500 kg/ha) | Herbicidal rating ECHORC ([14]; rate 0.0825 kg/ha)
9.0: Postemergence herbicidal rating ABUTH ([1]; Rate 0.0158 kg/ha) | Postemergence herbicidal rating ABUTH ([1]; Rate 0.0315 kg/ha) | Postemergence herbicidal rating ABUTH ([1]; Rate 0.0630 kg/ha) | Postemergence herbicidal rating AMBEL ([2]; Rate 0.0158 kg/ha) | Postemergence herbicidal rating AMBEL ([2]; Rate 0.0315 kg/ha) | Postemergence herbicidal rating AMBEL ([2]; Rate 0.0630 kg/ha) | Postemergence herbicidal rating IPOHE ([3]; Rate 0.0158 kg/ha) | Postemergence herbicidal rating IPOHE ([3]; Rate 0.0315 kg/ha) | Postemergence herbicidal rating IPOHE ([3]; Rate 0.0630 kg/ha) | Preemergence herbicidal rating CASOB ([8]; rate 0.2500 kg/ha) | Preemergence herbicidal rating CHEAL ([9]; rate 0.0156 kg/ha) | Preemergence herbicidal rating CHEAL ([9]; rate 0.0313 kg/ha) | Preemergence herbicidal rating CHEAL ([9]; rate 0.0625 kg/ha) | Preemergence herbicidal rating CHEAL ([9]; rate 0.1250 kg/ha) | Preemergence herbicidal rating CHEAL ([9]; rate 0.2500 kg/ha) | Preemergence herbicidal rating GALAP ([10]; rate 0.1250 kg/ha) | Preemergence herbicidal rating GALAP ([10]; rate 0.2500 kg/ha) | Preemergence herbicidal rating IPOHE ([11]; rate 0.2500 kg/ha) | Herbicidal rating ECHORC ([14]; rate 0.2500 kg/ha)
2.0: Preemergence herbicidal rating IPOHE ([11]; rate 0.1250 kg/ha)
5.0: Preemergence herbicidal rating ECHCG ([12]; rate 0.2500 kg/ha) | Herbicidal rating ECHORC ([14]; rate 0.0313 kg/ha)
8.0: Postemergence herbicidal rating SETVI ([5]; Rate 0.0630 kg/ha) | Preemergence herbicidal rating CASOB ([8]; rate 0.1250 kg/ha)
7.5: Postemergence herbicidal rating GLXMAW ([6]; Rate 0.0158 kg/ha)
4.0: Postemergence herbicidal rating TRZAWR ([7]; Rate 0.0630 kg/ha)
0.0: Postemergence herbicidal rating ECHCG ([4]; Rate 0.0158 kg/ha) | Postemergence herbicidal rating ECHCG ([4]; Rate 0.0315 kg/ha) | Postemergence herbicidal rating ECHCG ([4]; Rate 0.0630 kg/ha) | Preemergence herbicidal rating CASOB ([8]; rate 0.0156 kg/ha) | Preemergence herbicidal rating CASOB ([8]; rate 0.0313 kg/ha) | Preemergence herbicidal rating CASOB ([8]; rate 0.0625 kg/ha) | Preemergence herbicidal rating GALAP ([10]; rate 0.0156 kg/ha) | Preemergence herbicidal rating GALAP ([10]; rate 0.0313 kg/ha) | Preemergence herbicidal rating GALAP ([10]; rate 0.0625 kg/ha) | Preemergence herbicidal rating IPOHE ([11]; rate 0.0156 kg/ha) | Preemergence herbicidal rating IPOHE ([11]; rate 0.0313 kg/ha) | Preemergence herbicidal rating IPOHE ([11]; rate 0.0625 kg/ha) | Preemergence herbicidal rating ECHCG ([12]; rate 0.0156 kg/ha) | Preemergence herbicidal rating ECHCG ([12]; rate 0.0313 kg/ha) | Preemergence herbicidal rating ECHCG ([12]; rate 0.0625 kg/ha) | Preemergence herbicidal rating ECHCG ([12]; rate 0.1250 kg/ha) | Preemergence herbicidal rating ZEAMX ([13]; rate 0.0156 kg/ha) | Preemergence herbicidal rating ZEAMX ([13]; rate 0.0313 kg/ha) | Preemergence herbicidal rating ZEAMX ([13]; rate 0.0625 kg/ha)
3.0: Postemergence herbicidal rating SETVI ([5]; Rate 0.0158 kg/ha) | Postemergence herbicidal rating SETVI ([5]; Rate 0.0315 kg/ha) | Postemergence herbicidal rating TRZAWR ([7]; Rate 0.0158 kg/ha) | Preemergence herbicidal rating ZEAMX ([13]; rate 0.1250 kg/ha)
